According to patent US11311599B2, “β-1,3-glucan-peptide complex: compositions and methods” (priority 2018, dated 2022):
No end group written: not given here.

What was measured:
IL-1β = IL-1β in peripheral blood of CLP mice (ELISA); type: in vivo, mouse; conditions: 20 hours after treatment, FIG. 5
Experimental: (§1) Sepsis mouse models induced by cecal ligation and puncture (CLP) were prepared using 6-week-old C57BL/6 female mice (Samtako, Korea). All animal-related procedures were approved by the Institutional Animal Care and Use Committee of Hanyang University. The CLP mice were intraperitoneally administered three times (at 3, 6 and 12 hours) with an administered substance shown in Table 1. SPG-SC is a peptide complex having a sequence in which SPG-SH3 sequences were randomly mixed, and as the antibiotic, a combination of gentamycin and cephalosporin was used.
(§2) Whether a pro-inflammatory cytokine was inhibited when CLP mice were treated with a combination of SPG-SH3 and an antibiotic was determined.
(§3) Specifically, 20 hours after CLP mice were treated with the same administered substances as in Example <1-1>, the peripheral blood was obtained. The concentrations of TNF-α, IL-6, IL-1β and IL-18 in the blood were measured using an ELISA kit (BD Biosciences).

NADPH oxidase [1] = assay: NADPH oxidase activity in spleen of CLP mice; type: in vivo; conditions: spleen of CLP mouse; intraperitoneal at 3, 6 and 12 hours, doses of Table 1; FIG. 3
Experimental: (§4) The pharmaceutical composition of the present invention was intraperitoneally administered into a CLP mouse to confirm an antiinflammatory effect thereof. Specifically, the CLP mouse was anesthetized by administering pentothal sodium (50 mg/kg) intraperitoneally, and then its abdomen was dissected to expose the cecum. The cecum was ligated below the ileocecal valve, punctured twice with a 22-gauge needle, and then the abdomen was closed.
as §1
(§5) Particularly, CLP mice (n=5) treated with the same administered substances as in Example <1-1> were prepared. […] Alternatively, the spleen of the CLP mouse was obtained and fractionated, a 5 μM reagent in a mitochondrial ROS activity assay kit (CA-R933) was treated for 60 minutes, and Ex/Em was measured at 490/525 nm. […]

NADPH oxidase [2] = assay: NADPH oxidase activity in LPS-stimulated RAW2647 cells (lucigenin-ECL superoxide); type: cell-based, mouse; conditions: RAW2647 cells stimulated with LPS; treated at 1, 5 or 10 μg/mL; FIG. 2
Experimental: A mouse macrophage cell line, which is RAW2647 (ATCCTIB-71; American Type Culture Collection) cells, was cultured using DMEM (Invitrogen) containing 10% fetal bovine serum (FBS; Invitrogen), sodium pyruvate, non-essential amino acids, penicillin G (100 IU/ml) and streptomycin (100 μg/ml).
Whether reactive oxygen species (ROS) production is inhibited when RAW2647 cells were treated with each of SPG-SH1, SPG-SH2 or SPG-SH3 was determined. Particularly. NADPH oxidase (NOX) activity and a mitochondrial ROS level were confirmed.
Particularly, after the RAW2647 cells were stimulated with LPS, SPG-SH1, SPG-SH2 or SPG-SH3 was treated at a concentration of 1, 5 or 10 μg/mL, respectively. The NADPH oxidase activity was confirmed by measuring the production of a superoxide in the RAW2647 cells by a lucigenin (bis-N-methylacridinium nitrate)-ECL method. The production of mitochondrial ROS was determined by staining the RAW2647 cells with 5 μM of MitoSOX for 30 minutes and then measuring mean fluorescence intensity (MFI) by FACS analysis.

IL-18 = IL-18 in peripheral blood of CLP mice (ELISA); type: in vivo, mouse; conditions: 20 hours after treatment, FIG. 5
Experimental: as §1, §2, §3

TNF-α = TNF-α in peripheral blood of CLP mice (ELISA); type: in vivo, mouse; conditions: 20 hours after treatment, FIG. 5
Experimental: as §1, §2, §3

CLP mice [3] = assay: Survival of mice with CLP-induced sepsis; type: in vivo, mouse; conditions: approximately 60 hours after CLP treatment, doses of Table 1, FIG. 4
Experimental: as §4, §1
Specifically. CLP mice (n=7, twice; total 14) were treated with the administered substances as in Example <1-1> and monitored for 7 days.

IL-6 = IL-6 in peripheral blood of CLP mice (ELISA); type: in vivo, mouse; conditions: 20 hours after treatment, FIG. 5
Experimental: as §1, §2, §3

CLP mice [4] = assay: Total ROS in spleen of CLP mice; type: in vivo; conditions: spleen of CLP mouse; intraperitoneal at 3, 6 and 12 hours, doses of Table 1; FIG. 3
Experimental: as §4, §1, §5

Sequence of NADPH oxidase (O70145 whole entry): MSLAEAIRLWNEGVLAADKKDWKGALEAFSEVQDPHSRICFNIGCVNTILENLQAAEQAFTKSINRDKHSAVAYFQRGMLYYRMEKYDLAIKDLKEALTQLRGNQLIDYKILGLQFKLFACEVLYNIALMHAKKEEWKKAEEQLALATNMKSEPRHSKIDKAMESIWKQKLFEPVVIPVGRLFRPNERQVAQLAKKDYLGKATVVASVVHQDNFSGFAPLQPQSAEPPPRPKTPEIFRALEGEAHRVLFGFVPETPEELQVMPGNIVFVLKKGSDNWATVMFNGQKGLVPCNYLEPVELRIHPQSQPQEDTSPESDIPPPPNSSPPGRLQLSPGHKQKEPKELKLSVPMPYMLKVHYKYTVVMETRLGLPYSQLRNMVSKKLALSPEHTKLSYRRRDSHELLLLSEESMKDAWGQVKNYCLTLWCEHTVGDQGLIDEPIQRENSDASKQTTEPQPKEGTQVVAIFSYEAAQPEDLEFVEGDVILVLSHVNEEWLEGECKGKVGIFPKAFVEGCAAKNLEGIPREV
Sequence of NADPH oxidase (Q09014 whole entry, further chain): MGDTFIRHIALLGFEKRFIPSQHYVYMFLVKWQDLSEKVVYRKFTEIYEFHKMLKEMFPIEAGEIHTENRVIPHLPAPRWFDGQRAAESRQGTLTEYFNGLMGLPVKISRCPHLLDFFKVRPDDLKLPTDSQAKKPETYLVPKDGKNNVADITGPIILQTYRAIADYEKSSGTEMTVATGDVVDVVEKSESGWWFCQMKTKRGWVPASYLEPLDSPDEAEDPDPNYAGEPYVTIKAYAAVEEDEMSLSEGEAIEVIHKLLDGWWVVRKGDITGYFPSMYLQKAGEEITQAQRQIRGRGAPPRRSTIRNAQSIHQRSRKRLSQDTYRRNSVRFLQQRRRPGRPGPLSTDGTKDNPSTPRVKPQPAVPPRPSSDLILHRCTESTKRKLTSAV

Substance	concentration of IL-1β (IL-1β)	NADPH oxidase activity level (NADPH oxidase [1])	NADPH oxidase activity (NADPH oxidase [2])	concentration of IL-18 (IL-18)	concentration of TNF-α (TNF-α)	survival rate (CLP mice [3])	concentration of IL-6 (IL-6)	total ROS level (CLP mice [4])
SPG-SH3: β-glucan-peptide complex: schizophyllan (β-1,3-glucan) carboxylated and linked to amine group of SH3 peptide (SEQ ID NO: 4, ALLSFKKGGQTGYIPSNYV) (also: linked via amine group to carboxylated schizophyllan β-glucan)	significantly reduced	significantly reduced	lowest	significantly reduced	significantly reduced	approximately 70%	significantly reduced	significantly reduced
SH3: SH3 peptide, SEQ ID NO: 4, ALLSFKKGGQTGYIPSNYV, 19 amino acids, from SH3-1 and SH3-2 sequences of c-Src (SH3)			lowest					
